Test results published in publication PMC8568133, “Evaluation of bisphenylthiazoles as a promising class for combating multidrug-resistant fungal infections” (PLoS ONE, 2021).
Values after ≈ are worked out from the molar mass of the structure shown. Where two headings read alike, the source gives them in different places.

How the values were obtained:
Candida parapsilosis = assay: Antifungal broth microdilution MIC (50% growth inhibition); format: cell-based
Experimental: (§1) Serial dilutions (from 128 μg/mL to 0.06 μg/mL) of the tested compounds and control drugs (fluconazole, itraconazole and amphotericin) (in triplicates), were screened against clinical isolates of Candida albicans, Candida auris, Candida glabrata, Candida parapsilosis, Candida tropicalis, Candida krusei, Cryptococcus neoformans, Cryptococcus gattii and Aspergillus fumigatus species using the broth microdilution method according to the Clinical and Laboratory Standards Institute guidelines. MICs were determined as the lowest concentration of the compounds that inhibited the fungal growth by 50% after incubation at 35 °C for 24 h (for Candida and Aspergillus), or 48 h (for Cryptococcus). The minimum fungicidal concentration (MFC) of these compounds was tested by plating 4 μL from wells with no growth onto YPD agar plates. The plates were incubated at 37 °C for 24 hours before recording the MFC, which was categorized as the lowest concentration that reduced fungal growth by 99.9% [45]. The experiment was repeated three independent times.

Aspergillus fumigatus = assay: as above; format: cell-based
Experimental: as §1

MRSA USA300 = assay: Broth microdilution MIC, initial antibacterial screening; format: cell-based, S. aureus; conditions: MRSA USA300
Experimental: (§2) The minimum inhibitory concentrations (MICs) of the tested compounds and control drugs against clinically-relevant bacterial strains were determined using the broth microdilution method, according to guidelines outlined by the Clinical and Laboratory Standards Institute (CLSI), or as described previously.
(§3) Initial screening of the bisphenylthiazoles against Gram-positive and Gram-negative bacteria. Bacterial strains, (except C. difficile that was grown anaerobically on brain heart infusion supplemented agar at 37° C for 48 hours), were grown aerobically overnight on tryptone soy agar plates at 37° C. Afterwards, a bacterial solution equivalent to 0.5 McFarland standard was prepared and diluted in cation-adjusted Mueller-Hinton broth (CAMHB) (for S. aureus, and E. coli) to achieve a bacterial concentration of about 5 × 10^5 CFU/mL. C. difficile was diluted in brain heart infusion supplemented broth, supplemented with yeast extract, hemin and vitamin K to achieve a bacterial concentration of about 5 × 10^5 CFU/mL. Compounds and control drugs were added in the first row of the 96 -well plates, and serially diluted with the corresponding media containing bacteria. Plates were then, incubated aerobi cally at 37° C for 18-20 hours (for S. aureus and E. coli). C. difficile was incubated anaerobically at 37° C for 48 hours. […]
(§4) the visual growth of bacteria.

Cryptococcus neoformans = assay: Antifungal broth microdilution MIC (50% growth inhibition, 48 h); format: cell-based
Experimental: as §1

Cryptococcus gattii = assay: as above; format: cell-based
Experimental: as §1

[1] = test system: C. difficile ATCC BAA1870; assay: Broth microdilution MIC, initial antibacterial screening (anaerobic); format: cell-based, Clostridioides difficile
Experimental: as §2, §3, §4

[2] = test system: Lactobacillus casei ATCC-334; assay: Broth microdilution MIC against normal human microbiota; format: cell-based; conditions: Lactobacillus casei ATCC-334
Experimental: (§5) Broth microdilution was utilized to determine the activity of bisphenylthiazoles against the human gut microflora as described elsewhere. A bacterial solution equivalent to 0.5 McFarland standards was prepared and diluted in MRS broth to achieve a bacterial concentration of approximately 5 x 10^5 CFU/mL. Then, compounds/control antifungals (in triplicates), were added to the plates and serially diluted with media containing bacteria. The plates were incubated for 48 hours at 37 °C before recording the MIC values. The experiment was repeated three independent times.

[3] = test system: Lactobacillus gasseri HM-400; assay: as above; format: cell-based; conditions: Lactobacillus gasseri HM-400
Experimental: as §5

[4] = test system: Lactobacillus crispatus HM-370; assay: as above; format: cell-based; conditions: Lactobacillus crispatus HM-370
Experimental: as §5

[5] = test system: monkey kidney epithelial cells (Vero); assay: In vitro cytotoxicity, MTS assay
Experimental: (§6) Fig 2 In vitro cytotoxicity assay of bisphenylthiazole compounds 7, 16 and 17 (tested in triplicates at 32, 64 and 128 μg/mL) against: A) human colorectal cells (Caco-2), and B) monkey kidney epithelial cells (Vero) after 24-hours exposure time, using the MTS 3-(4,5-dimethylthiazol-2-yl)-5-(3-carboxymethoxyphenyl)-2-(4-sulfophenyl)-2H-tetrazolium) assay. The data represent the percentage of viable Caco-2 or Vero cells measured as the average absorbance relative to DMSO after exposure to the tested compounds. Dimethyl sulfoxide (DMSO) was used as a negative control. Error bars represent the standard deviation values.
(§7) To explore the tolerability of bisphenylthiazoles, their cytotoxicity profile was assessed in human colorectal adenocarcinoma (Caco-2) and monkey kidney epithelial cells (Vero) as described earlier. Briefly, compounds were incubated with the cells for 24 hours. Then, cells were incubated with MTS reagent for 3 hours before measuring the absorbance values (OD490). The experiment was repeated in two independent times.

[6] = test system: human colorectal cells (Caco-2); assay: In vitro cytotoxicity, MTS assay; conditions: Caco-2, 24 h exposure, MTS
Experimental: as §6, §7

Candida tropicalis = assay: Antifungal broth microdilution MIC (50% growth inhibition) and MFC; format: cell-based; conditions: C. tropicalis ATCC 1369
Experimental: as §1

Candida glabrata = assay: as above; format: cell-based
Experimental: as §1

Candida krusei = assay: as above; format: cell-based
Experimental: as §1

Candida auris = assay: as above; format: cell-based
Experimental: as §1

Candida albicans = assay: as above; format: cell-based
Experimental: as §1

[7] = test system: E. coli BW25113 (wild-type); assay: Broth microdilution MIC, initial antibacterial screening; format: cell-based, Escherichia coli
Experimental: as §2, §3, §4

[8] = test system: E. coli JW55031 (tolC-mutant); assay: microbe, parasite or virus in culture; format: cell-based, Escherichia coli; conditions: E. coli JW55031 (tolC-mutant)
Experimental: as §2, §3, §4

Structure (SMILES): Cc1nc(-c2ccc(-c3ccccc3)cc2)sc1-c1nnc(N[C@@H]2CCCC[C@H]2N)o1 (relative stereo) [Compound 16, N-{5-[2-((1,1’-Biphenyl)-4-yl)-4-methylthiazol-5-yl]-1,3,4-oxadiazol-2-yl}cyclo-hexane-trans-1,2-diamine]
- MIC (Candida parapsilosis; C. parapsilosis ATCC 22019): 1 µg/mL (≈ 2.32 µM)
- MIC (Candida parapsilosis; C. parapsilosis CAB 502638): 1 µg/mL (≈ 2.32 µM)
- MIC (Aspergillus fumigatus; A. fumigatus NR 35303): 4 µg/mL (≈ 9.27 µM)
- MIC (Aspergillus fumigatus; A. fumigatus NR 35304): 4 µg/mL (≈ 9.27 µM)
- MIC against Aspergillus fumigatus (Aspergillus fumigatus; tested A. fumigatus isolates (Table 5)): 4 µg/mL (≈ 9.27 µM)
- MIC (MRSA USA300): 64 µg/mL (≈ 148 µM)
- MIC (Cryptococcus neoformans; C. neoformans NR 41298): 1 µg/mL (≈ 2.32 µM)
- MIC (Cryptococcus neoformans; C. neoformans NR 41300): 1 µg/mL (≈ 2.32 µM)
- MIC (Cryptococcus neoformans; C. neoformans NR 48770): 1 µg/mL (≈ 2.32 µM)
- MIC (Cryptococcus gattii; C. gattii NR 43209): 1 µg/mL (≈ 2.32 µM)
- MIC (Cryptococcus gattii; C. gattii NR 43210): 1 µg/mL (≈ 2.32 µM)
- MIC [1]: 32 µg/mL (≈ 74.1 µM)
- MIC [2]: >128 µg/mL
- MIC [3]: >128 µg/mL
- MIC [4]: >128 µg/mL
- concentration up to which non-toxic ([5]; Vero, 24 h exposure, MTS): ≤ 64 µg/mL
- times more tolerable than amphotericin B ([5]; relative to amphotericin B): 16 times
- CC50 [6]: > 128 µg/mL
- concentration up to which non-toxic [6]: ≤ 64 µg/mL
- MIC (Candida tropicalis): 4 µg/mL (≈ 9.27 µM)
- MIC (Candida glabrata; C. glabrata ATCC 66032): 1 µg/mL (≈ 2.32 µM)
- MIC (Candida glabrata; C. glabrata ATCC MYA-2950): 1 µg/mL (≈ 2.32 µM)
- MIC (Candida krusei; C. krusei ATCC 34135): 1 µg/mL (≈ 2.32 µM)
- MIC (Candida krusei; C. krusei CAB 396420): 1 µg/mL (≈ 2.32 µM)
- MIC (Candida auris; C. auris 381): 1 µg/mL (≈ 2.32 µM)
- MIC (Candida auris; C. auris 382): 2 µg/mL (≈ 4.63 µM)
- MIC (Candida auris; C. auris 383): 1 µg/mL (≈ 2.32 µM)
- MIC (Candida auris; C. auris 384): 1 µg/mL (≈ 2.32 µM)
- MIC (Candida auris; C. auris 385): 2 µg/mL (≈ 4.63 µM)
- MIC (Candida auris; C. auris 386): 1 µg/mL (≈ 2.32 µM)
- MIC (Candida auris; C. auris 387): 2 µg/mL (≈ 4.63 µM)
- MIC (Candida auris; C. auris 388): 1 µg/mL (≈ 2.32 µM)
- MIC (Candida auris; C. auris 389): 2 µg/mL (≈ 4.63 µM)
- MIC (Candida auris; C. auris 390): 1 µg/mL (≈ 2.32 µM)
- MIC (Candida albicans): 2 µg/mL (≈ 4.63 µM)
- MIC (Candida albicans; C. albicans ATCC 10231): 4 µg/mL (≈ 9.27 µM)
- MIC (Candida albicans; C. albicans SS5314 (wild-type)): 1 µg/mL (≈ 2.32 µM)
- MIC [7]: >64 µg/mL
- MIC [8]: 64 µg/mL (≈ 148 µM)
